Measurements taken from the NIST ThermoML archive (doi:10.1016/j.tca.2004.08.013).
Numbers after ± are expanded uncertainties.

Assay: xn = mol fraction of the nth substance listed
Conditions: 101.3 kPa, Liquid

CCCCNCCCC [dibutylamine] + ClC(Cl)Cl
Conditions	mass density, 303.15 K [kg/m3]	mass density, 313.15 K [kg/m3]	viscosity, 303.15 K [mPa·s]	viscosity, 313.15 K [mPa·s]
x1 = 0.0103	1455.46 ± 1.3	1433.69 ± 1.3	0.53 ± 0.008	0.48 ± 0.007
x1 = 0.0197	1441.84 ± 1.3	1420.36 ± 1.2	0.54 ± 0.008	0.489 ± 0.007
x1 = 0.0294	1428.11 ± 1.3	1406.9 ± 1.2	0.552 ± 0.008	0.493 ± 0.007
x1 = 0.0381	1415.97 ± 1.2	1394.99 ± 1.2	0.56 ± 0.008	0.502 ± 0.008
x1 = 0.0482	1401.96 ± 1.2	1381.38 ± 1.2	0.572 ± 0.008	0.51 ± 0.008
x1 = 0.0593	1387.11 ± 1.2	1366.85 ± 1.1	0.584 ± 0.008	0.516 ± 0.008
x1 = 0.0684	1375.09 ± 1.1	1355.19 ± 1.1	0.599 ± 0.009	0.528 ± 0.008
x1 = 0.0788	1361.57 ± 1.1	1342.11 ± 1.1	0.612 ± 0.009	0.535 ± 0.008
x1 = 0.0876	1350.35 ± 1.1	1331.13 ± 1.1	0.624 ± 0.009	0.542 ± 0.008

CCCCNCCCC [dibutylamine] + ClC(Cl)(Cl)Cl
Conditions	mass density, 303.15 K [kg/m3]	mass density, 313.15 K [kg/m3]	viscosity, 303.15 K [mPa·s]	viscosity, 313.15 K [mPa·s]
x1 = 0.0105	1560.01 ± 1.5	1540.58 ± 1.5	0.852 ± 0.012	0.761 ± 0.011
x1 = 0.0201	1546.59 ± 1.5	1527.31 ± 1.4	0.851 ± 0.012	0.76 ± 0.011
x1 = 0.0298	1533.23 ± 1.5	1514.26 ± 1.4	0.85 ± 0.012	0.761 ± 0.011
x1 = 0.0396	1519.86 ± 1.4	1501.14 ± 1.4	0.85 ± 0.012	0.76 ± 0.011
x1 = 0.049	1507.12 ± 1.4	1488.59 ± 1.4	0.849 ± 0.012	0.759 ± 0.011
x1 = 0.0583	1494.77 ± 1.4	1476.4 ± 1.3	0.847 ± 0.012	0.757 ± 0.011
x1 = 0.0696	1480 ± 1.4	1461.9 ± 1.3	0.846 ± 0.012	0.755 ± 0.011
x1 = 0.0789	1467.95 ± 1.3	1450.12 ± 1.3	0.845 ± 0.012	0.754 ± 0.011
x1 = 0.089	1455.15 ± 1.3	1437.55 ± 1.3	0.845 ± 0.012	0.752 ± 0.01

CCCCN(CCCC)CCCC [tributylamine] + ClC(Cl)Cl
Conditions	mass density, 303.15 K [kg/m3]	mass density, 313.15 K [kg/m3]	viscosity, 303.15 K [mPa·s]	viscosity, 313.15 K [mPa·s]
x1 = 0.0102	1450.1 ± 1.3	1428.49 ± 1.3	0.533 ± 0.008	0.479 ± 0.007
x1 = 0.0205	1430.19 ± 1.3	1409.15 ± 1.2	0.545 ± 0.008	0.488 ± 0.007
x1 = 0.0308	1410.92 ± 1.2	1390.4 ± 1.2	0.557 ± 0.008	0.496 ± 0.007
x1 = 0.0404	1393.58 ± 1.2	1373.58 ± 1.1	0.569 ± 0.008	0.504 ± 0.008
x1 = 0.0505	1376.08 ± 1.2	1356.5 ± 1.1	0.583 ± 0.008	0.513 ± 0.008
x1 = 0.0598	1360.44 ± 1.1	1341.35 ± 1.1	0.593 ± 0.009	0.522 ± 0.008
x1 = 0.0695	1344.77 ± 1.1	1326.07 ± 1.1	0.606 ± 0.009	0.529 ± 0.008
x1 = 0.0799	1328.42 ± 1.1	1310.05 ± 1	0.615 ± 0.009	0.538 ± 0.008
x1 = 0.0856	1319.72 ± 1	1301.56 ± 1	0.621 ± 0.009	0.545 ± 0.008

CCCN(CCC)CCC [tripropylamine] + ClC(Cl)(Cl)Cl
Conditions	mass density, 303.15 K [kg/m3]	mass density, 313.15 K [kg/m3]	viscosity, 303.15 K [mPa·s]	viscosity, 313.15 K [mPa·s]
x1 = 0.0103	1558.08 ± 1.5	1538.54 ± 1.5	0.848 ± 0.012	0.754 ± 0.011
x1 = 0.0203	1542.01 ± 1.5	1522.71 ± 1.4	0.84 ± 0.012	0.747 ± 0.01
x1 = 0.0304	1526.35 ± 1.4	1507.24 ± 1.4	0.829 ± 0.011	0.739 ± 0.01
x1 = 0.0398	1511.85 ± 1.4	1492.94 ± 1.4	0.819 ± 0.011	0.733 ± 0.01
x1 = 0.0497	1496.93 ± 1.4	1478.28 ± 1.4	0.811 ± 0.011	0.726 ± 0.01
x1 = 0.0606	1480.86 ± 1.4	1462.46 ± 1.3	0.802 ± 0.011	0.718 ± 0.01
x1 = 0.0695	1468.02 ± 1.3	1449.76 ± 1.3	0.795 ± 0.011	0.712 ± 0.01
x1 = 0.0786	1455.03 ± 1.3	1437.01 ± 1.3	0.788 ± 0.011	0.706 ± 0.01
x1 = 0.0893	1440.17 ± 1.3	1422.3 ± 1.2	0.78 ± 0.011	0.699 ± 0.01

CCCCN [1-butanamine] + ClC(Cl)Cl
Conditions	mass density, 303.15 K [kg/m3]	mass density, 313.15 K [kg/m3]	viscosity, 303.15 K [mPa·s]	viscosity, 313.15 K [mPa·s]
x1 = 0.0091	1462.78 ± 1.3	1440.74 ± 1.3	0.528 ± 0.008	0.478 ± 0.007
x1 = 0.0196	1453.53 ± 1.3	1431.89 ± 1.3	0.536 ± 0.008	0.485 ± 0.007
x1 = 0.0289	1445.49 ± 1.3	1423.81 ± 1.2	0.544 ± 0.008	0.493 ± 0.007
x1 = 0.0409	1435.01 ± 1.3	1413.72 ± 1.2	0.55 ± 0.008	0.499 ± 0.007
x1 = 0.0483	1428.52 ± 1.2	1407.41 ± 1.2	0.556 ± 0.008	0.505 ± 0.008
x1 = 0.0578	1420.29 ± 1.2	1399.24 ± 1.2	0.562 ± 0.008	0.511 ± 0.008
x1 = 0.0676	1411.7 ± 1.2	1390.72 ± 1.2	0.566 ± 0.008	0.517 ± 0.008
x1 = 0.0775	1403.16 ± 1.2	1382.3 ± 1.1	0.569 ± 0.008	0.521 ± 0.008
x1 = 0.0848	–	–	0.573 ± 0.008	0.525 ± 0.008

CCCCN [1-butanamine] + ClC(Cl)(Cl)Cl
Conditions	mass density, 303.15 K [kg/m3]	mass density, 313.15 K [kg/m3]	viscosity, 303.15 K [mPa·s]	viscosity, 313.15 K [mPa·s]
x1 = 0.0099	1566.74 ± 1.5	1547.13 ± 1.5	0.855 ± 0.012	0.763 ± 0.011
x1 = 0.0183	1559.88 ± 1.5	1540.41 ± 1.5	0.858 ± 0.012	0.765 ± 0.011
x1 = 0.0287	1551.36 ± 1.5	1532.01 ± 1.4	0.861 ± 0.012	0.768 ± 0.011
x1 = 0.0386	1543.06 ± 1.5	1523.9 ± 1.4	0.862 ± 0.012	0.77 ± 0.011
x1 = 0.0477	1535.31 ± 1.5	1516.18 ± 1.4	0.862 ± 0.012	0.773 ± 0.011
x1 = 0.0581	1526.57 ± 1.4	1507.58 ± 1.4	0.864 ± 0.012	0.776 ± 0.011
x1 = 0.0675	1518.67 ± 1.4	1499.84 ± 1.4	0.866 ± 0.012	0.78 ± 0.011
x1 = 0.076	1511.52 ± 1.4	1492.72 ± 1.4	0.869 ± 0.012	0.784 ± 0.011
x1 = 0.0856	1503.49 ± 1.4	1484.69 ± 1.4	0.871 ± 0.012	0.786 ± 0.011

CCN(CC)CC [triethylamine] + C1COCCO1
303.15 K
Conditions	mass density [kg/m3]	viscosity [mPa·s]
x1 = 0.0138	1015.32 ± 0.55	1.059 ± 0.014
x1 = 0.0232	1010.65 ± 0.54	1.042 ± 0.014
x1 = 0.0349	1004.86 ± 0.53	1.018 ± 0.014
x1 = 0.0453	999.87 ± 0.52	0.998 ± 0.014
x1 = 0.0551	995.17 ± 0.52	0.98 ± 0.013
x1 = 0.0691	988.57 ± 0.52	0.955 ± 0.013
x1 = 0.0803	983.41 ± 0.52	0.932 ± 0.013
x1 = 0.0909	978.57 ± 0.52	0.914 ± 0.012
x1 = 0.1006	974.22 ± 0.52	0.899 ± 0.012
x1 = 0.1128	968.78 ± 0.52	0.877 ± 0.012

CCCN [propan-1-amine] + ClC(Cl)Cl
Conditions	mass density, 303.15 K [kg/m3]	mass density, 313.15 K [kg/m3]	viscosity, 303.15 K [mPa·s]	viscosity, 313.15 K [mPa·s]
x1 = 0.01	1463.1 ± 1.3	1441.12 ± 1.3	0.523 ± 0.008	0.474 ± 0.007
x1 = 0.0207	1454.77 ± 1.3	1433.07 ± 1.3	0.526 ± 0.008	0.478 ± 0.007
x1 = 0.0296	1447.98 ± 1.3	1426.56 ± 1.2	0.529 ± 0.008	0.481 ± 0.007
x1 = 0.0426	1437.89 ± 1.3	1416.8 ± 1.2	0.533 ± 0.008	0.485 ± 0.007
x1 = 0.0491	1432.95 ± 1.3	1411.95 ± 1.2	0.536 ± 0.008	0.488 ± 0.007
x1 = 0.0595	1424.84 ± 1.2	1403.97 ± 1.2	0.539 ± 0.008	0.491 ± 0.007
x1 = 0.0689	1417.67 ± 1.2	1396.96 ± 1.2	0.542 ± 0.008	0.495 ± 0.007
x1 = 0.0796	1409.35 ± 1.2	1388.75 ± 1.2	0.544 ± 0.008	0.496 ± 0.007
x1 = 0.096	1396.86 ± 1.2	1376.41 ± 1.1	0.548 ± 0.008	0.5 ± 0.007

CCCN [propan-1-amine] + ClC(Cl)(Cl)Cl
Conditions	mass density, 303.15 K [kg/m3]	mass density, 313.15 K [kg/m3]	viscosity, 303.15 K [mPa·s]	viscosity, 313.15 K [mPa·s]
x1 = 0.0071	1569.84 ± 1.5	1550.16 ± 1.5	0.859 ± 0.012	0.761 ± 0.011
x1 = 0.0184	1561.86 ± 1.5	1542.3 ± 1.5	0.866 ± 0.012	0.763 ± 0.011
x1 = 0.0285	1554.57 ± 1.5	1535.07 ± 1.5	0.873 ± 0.012	0.764 ± 0.011
x1 = 0.0386	1547.37 ± 1.5	1527.92 ± 1.4	0.876 ± 0.012	0.765 ± 0.011
x1 = 0.0479	1540.78 ± 1.5	1521.37 ± 1.4	0.88 ± 0.012	0.768 ± 0.011
x1 = 0.0574	1533.92 ± 1.4	1514.52 ± 1.4	0.885 ± 0.012	0.77 ± 0.011
x1 = 0.0661	1527.48 ± 1.4	1508.11 ± 1.4	0.885 ± 0.012	0.772 ± 0.011
x1 = 0.0748	1521.24 ± 1.4	1501.94 ± 1.4	0.888 ± 0.012	0.774 ± 0.011
x1 = 0.0841	1514.3 ± 1.4	1495.14 ± 1.4	0.892 ± 0.012	0.775 ± 0.011
